Data on 28 compounds can be found in ChEMBL document CHEMBL1137758, “Biphenyl C-cyclopropylalkylamides: New scaffolds for targeting estrogen receptor beta” (Bioorg Med Chem Lett, 2009).

Assay [1] deals with T1, Estrogen receptor (Homo sapiens) (UniProt P03372).
T1 sequence (whole entry): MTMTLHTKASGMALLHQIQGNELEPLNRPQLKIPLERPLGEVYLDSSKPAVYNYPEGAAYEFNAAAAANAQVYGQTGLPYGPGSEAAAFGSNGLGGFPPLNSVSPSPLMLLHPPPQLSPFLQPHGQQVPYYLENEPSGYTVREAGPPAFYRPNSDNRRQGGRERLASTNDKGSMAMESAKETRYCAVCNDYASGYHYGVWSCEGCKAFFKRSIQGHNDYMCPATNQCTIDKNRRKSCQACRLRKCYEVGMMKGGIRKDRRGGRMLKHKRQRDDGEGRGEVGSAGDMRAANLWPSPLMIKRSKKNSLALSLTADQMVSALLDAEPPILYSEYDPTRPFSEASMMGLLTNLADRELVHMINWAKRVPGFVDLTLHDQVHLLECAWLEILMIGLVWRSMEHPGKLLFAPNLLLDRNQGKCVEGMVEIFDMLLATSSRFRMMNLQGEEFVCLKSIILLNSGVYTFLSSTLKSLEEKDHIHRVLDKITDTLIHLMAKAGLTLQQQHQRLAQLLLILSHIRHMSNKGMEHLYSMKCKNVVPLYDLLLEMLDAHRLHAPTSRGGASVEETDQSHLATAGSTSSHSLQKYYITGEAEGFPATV
As to the kind of experiment: Displacement of fluorescein-labeled estradiol from human recombinant ERalpha at 0.2 uM by fluorescence polarization assay. (In general: Fluorescence polarisation rises when a labelled molecule tumbles more slowly, as on binding a larger partner.)

In assay [2] the target is T1, Estrogen receptor (Homo sapiens). As to the kind of experiment: Displacement of fluorescein-labeled estradiol from human recombinant ERalpha at 1 uM by fluorescence polarization assay.
Assay [3] shares this target. As to the kind of experiment: Displacement of fluorescein-labeled estradiol from human recombinant ERalpha at 5 uM by fluorescence polarization assay.
Assay [4] concerns the target T2, Estrogen receptor beta (Homo sapiens, UniProt Q92731). As to the kind of experiment: Displacement of fluorescein-labeled estradiol from human recombinant ERbeta at 5 uM by fluorescence polarization assay.
The target in assay [5] is T2, Estrogen receptor beta. As to the kind of experiment: Displacement of fluorescein-labeled estradiol from human recombinant ERbeta at 0.2 uM by fluorescence polarization assay.
Assay [6] has as its target T2, Estrogen receptor beta. As to the kind of experiment: Displacement of fluorescein-labeled estradiol from human recombinant ERbeta at 1 uM by fluorescence polarization assay.

T2 sequence (Q92731 whole entry): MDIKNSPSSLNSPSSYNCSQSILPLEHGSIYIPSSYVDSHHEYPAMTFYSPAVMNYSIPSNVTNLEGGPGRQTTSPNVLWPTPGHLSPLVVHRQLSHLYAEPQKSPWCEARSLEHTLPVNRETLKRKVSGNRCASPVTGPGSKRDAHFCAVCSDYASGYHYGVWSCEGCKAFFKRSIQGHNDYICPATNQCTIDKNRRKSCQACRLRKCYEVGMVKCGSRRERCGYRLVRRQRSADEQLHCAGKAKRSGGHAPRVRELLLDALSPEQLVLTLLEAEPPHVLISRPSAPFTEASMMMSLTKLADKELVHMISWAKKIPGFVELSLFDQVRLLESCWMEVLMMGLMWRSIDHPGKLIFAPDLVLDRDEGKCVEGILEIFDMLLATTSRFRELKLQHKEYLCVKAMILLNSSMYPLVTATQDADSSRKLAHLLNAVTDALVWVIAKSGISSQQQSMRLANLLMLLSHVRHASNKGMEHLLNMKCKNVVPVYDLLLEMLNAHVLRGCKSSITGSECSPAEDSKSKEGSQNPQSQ

In the case of `CCC/C=C(\CCC)[C@@H](NS(=O)(=O)c1ccccc1Cl)c1ccc(C(=O)OC)cc1`, the Activity in assay [1] turned out to be 61%; in assay [2], 92%; in assay [3] it was 98%; in assay [4], 40%; in assay [5], 15%; in assay [6] it was 32%.
For the compound `CCCC[C@@H]1C[C@H]1[C@@H](NC(=O)c1ccco1)c1ccc(-c2ccccc2)cc1`, the Activity in assay [1] was 58%; in assay [2], 57%; in assay [3], 54%; in assay [4] it was 13%; in assay [5], -2%; in assay [6], 0%.
As for `CCC/C=C(\CCC)[C@@H](NS(=O)(=O)c1ccc(C(F)(F)F)cc1)c1ccccc1`, the Activity in assay [1] was 47%; in assay [2] it was 74%; in assay [3], 90%; in assay [4], 30%; in assay [5], -1%; in assay [6], 10%.
With `CCC/C=C(\CCC)[C@@H](NC(=O)c1ccco1)c1ccc(C(=O)OC)cc1`, the Activity in assay [1] is 36%; in assay [2], 58%; in assay [3] it was 76%; in assay [4], 15%; in assay [5], -4%; in assay [6], -4%.
Consider `CCCC[C@@H]1C[C@@]1(C)[C@@H](NS(=O)(=O)c1cccc2cccnc12)c1ccc(-c2ccccc2)cc1`, for which the Activity was 52% in assay [1]; 52% in assay [2]; 41% in assay [3]; 2% in assay [4]; -5% in assay [5]; -4% in assay [6].
For `C=C(CCCC)[C@@H](NC(=O)c1cccs1)c1ccccc1`, the Activity in assay [1] was 67%; in assay [2], 40%; in assay [3], 54%; in assay [4], 8%; in assay [5] it was -1%; in assay [6], -3%.
For the compound `CCC/C=C(\CCC)[C@@H](NC(=O)CC(C)C)c1ccccc1`, the Activity in assay [1] is 69%; in assay [2] it was 84%; in assay [3], 110%; in assay [4] it was 22%; in assay [5], -4%; in assay [6], 3%.
Take `CCC[C@@H]1C[C@@]1(CCC)[C@@H](NC(=O)c1ccco1)c1ccc(C(Cl)(Cl)Cl)cc1`: the Activity in assay [1] is 26%; in assay [2] it was 39%; in assay [3], 73%; in assay [4], 25%; in assay [5], -2%; in assay [6], 5%.
Regarding `CCC/C=C(\CCC)[C@@H](NC(=O)c1ccc(C(=O)OC)cc1)c1ccc(C(=O)OC)cc1`, the Activity in assay [1] is -14%; in assay [2], 24%; in assay [3], 38%; in assay [4], 8%; in assay [5], -13%; in assay [6], -3%.
Consider `C=C(CCCC)[C@@H](NC(=O)c1ccco1)c1ccccc1`, for which the Activity is -111% in assay [1]; 29% in assay [2]; 41% in assay [3]; 6% in assay [4]; -3% in assay [5]; -2% in assay [6].
With `CCCC[C@@H]1C[C@H]1[C@@H](NC(=O)c1ccccc1)c1ccc(C(F)(F)F)cc1`, the Activity in assay [1] is 32%; in assay [2], 33%; in assay [3], 48%; in assay [4] it was 13%; in assay [5], -9%; in assay [6], 1%.
Regarding `CCCCCC/C=C(\C)[C@@H](NC(=O)c1cccnc1)c1ccc(-c2ccccc2)cc1`, the Activity in assay [1] was 32%; in assay [2] it was 44%; in assay [3] it was 48%; in assay [4] it was 6%; in assay [5] it was -8%; in assay [6], -4%.
Consider `CCC/C=C(\CCC)[C@@H](NS(C)(=O)=O)c1ccccc1`, for which the Activity in assay [1] is 48%; in assay [2] it was 39%; in assay [3], 56%; in assay [4], 17%; in assay [5], -3%; in assay [6], -4%.
Take `C=C(CCCC)[C@@H](NC(=O)c1ccc(C(F)(F)F)cc1)c1ccccc1`: the Activity in assay [1] was -61%; in assay [2], 21%; in assay [3], 27%; in assay [4], 3%; in assay [5], -8%; in assay [6], -7%.
Consider `CCC/C=C(\CCC)[C@@H](NC(=O)c1ccc(-c2ccccc2)cc1)c1ccc(C(=O)OC)cc1`, for which the Activity in assay [1] was 27%; in assay [2], 25%; in assay [3], 27%; in assay [4], 4%; in assay [5] it was -1%; in assay [6], -3%.
With `CCC/C=C(\CCC)[C@@H](NP(=O)(c1ccccc1)c1ccccc1)c1ccc(C(F)(F)F)cc1`, the Activity in assay [1] is 55%; in assay [2], 65%; in assay [3] it was 79%; in assay [4], 27%; in assay [5], 8%; in assay [6], 16%.
With `CCCC[C@@H]1C[C@H]1[C@@H](NC(=O)c1ccco1)c1ccccc1`, the Activity was determined as 63% in assay [1]; 65% in assay [2]; 91% in assay [3]; 20% in assay [4]; 8% in assay [5]; 7% in assay [6].
As to `CCC/C=C(\CCC)[C@@H](NS(=O)(=O)c1ccc(-c2ccccc2)cc1)c1ccc(C(=O)OC)cc1`, the Activity in assay [1] is -69%; in assay [2] it was 47%; in assay [3], 54%; in assay [4] it was 16%; in assay [5] it was 6%; in assay [6], 12%.
Consider `CCCC[C@@H]1C[C@H]1[C@@H](NC(=O)c1ccc(C(F)(F)F)cc1)c1ccc(C(=O)OC)cc1`, for which the Activity in assay [1] is 20%; in assay [2], 45%; in assay [3] it was 45%; in assay [4], 15%; in assay [5], -2%; in assay [6], 1%.
As to `C=C(CCCC)[C@@H](NC(=O)c1ccc(C(=O)OC)cc1)c1ccccc1`, the Activity was 21% in assay [1]; 24% in assay [2]; 37% in assay [3]; 5% in assay [4]; -9% in assay [5]; -7% in assay [6].
Turning to `CCC/C=C(\CCC)[C@@H](NC(=O)c1ccccc1)c1ccc(C(=O)OC)cc1`, the Activity in assay [1] was found to be 0%; in assay [2], 52%; in assay [3] it was 78%; in assay [4], 11%; in assay [5] it was 1%; in assay [6], 28%.
With `CCC[C@@H]1C[C@@]1(CCC)[C@@H](NS(=O)(=O)c1cccc2cccnc12)c1ccc(-c2ccccc2)cc1`, the Activity in assay [1] was determined as 58%; in assay [2] it was 70%; in assay [3], 88%; in assay [4], 29%; in assay [5], 15%; in assay [6], 17%.
`CCC[C@@H]1C[C@@]1(CCC)[C@@H](NC(=O)Cc1ccccc1)c1ccc(-c2ccccc2)cc1`: the Activity in assay [1] was 7%; in assay [2], 17%; in assay [3] it was -6%; in assay [4], -5%; in assay [5], -8%; in assay [6] it was -6%.
Turning to `CCC/C=C(\CCC)[C@@H](NS(=O)(=O)c1cccc2cccnc12)c1ccc(-c2ccccc2)cc1`, the Activity is 56% in assay [1]; 28% in assay [2]; 67% in assay [3]; 13% in assay [4]; 14% in assay [5]; 11% in assay [6].
On to `CCC/C=C(\CCC)[C@@H](NS(=O)(=O)c1ccc(C(Cl)(Cl)Cl)cc1)c1ccccc1`, for which the Activity in assay [1] was found to be 42%; in assay [2], 61%; in assay [3], 95%; in assay [4], 42%; in assay [5], 6%; in assay [6], 13%.
As to `CCCC[C@@H]1C[C@H]1[C@@H](NC(=O)c1ccccc1)c1ccc(C(=O)OC)cc1`, the Activity in assay [1] is 54%; in assay [2] it was 54%; in assay [3] it was 75%; in assay [4] it was 6%; in assay [5] it was -3%; in assay [6] it was -2%.
On to `CCCC[C@@H]1C[C@H]1[C@@H](NC(=O)C(C)(C)C)c1ccc(C(F)(F)F)cc1`, for which the Activity in assay [1] was 40%; in assay [2], 39%; in assay [3], 56%; in assay [4] it was 7%; in assay [5], -2%; in assay [6] it was -4%.
As to `CCCC[C@@H]1C[C@H]1[C@@H](NC(=O)c1ccccc1)c1ccc(-c2ccccc2)cc1`, the Activity was determined as 72% in assay [1]; 77% in assay [2]; 46% in assay [4]; 26% in assay [5]; 31% in assay [6].
